Assay results from patent US20070269512A1, “GASTRORETENTIVE SUSTAINED RELEASE FORMULATIONS” (priority 2006, published 2007).

Experiment: Pharmacokinetic study, plasma concentrations by LC-MS/MS
Parameters: species or system beagle dogs
Settings: dog, in vivo
Protocol: Each overnight-fasted dog in group 1 received an intravenous bolus dose administration (1 mg/kg) of the compound of Formula (I). Following i.v. dose administration, blood samples (˜3 mL) were collected via jugular venipuncture, or other suitable site, into EDTA tubes and placed on wet ice, at predose (0.0), 0.25, 0.5, 1, 2, 4, 8, and 24 hours post dose. Each overnight-fasted dog in groups 2-5 received a single oral dose (200 mg) of compound of Formula (I). Following oral dose administration, blood samples (˜3 mL) were collected via jugular venipuncture, or other suitable site, into EDTA tubes and placed on wet ice, at predose (0.0), 0.25, 0.5, 1, 2, 4, 8, 24, 36, and 48 hours post dose. Plasma was harvested by centrifugation, each plasma sample are split into approximately equal parts before being frozen at −70° C. Food was returned after the 4 hour blood sample is collected. All samples were processed within two hours of collection. All samples are labeled with the study number, test article, dose, time interval, species, and animal identification number.
One set of plasma samples were analyzed for unchanged compound of Formula (I) concentrations using a liquid chromatographic-triple quadrupole mass spectrometric (LC-MS/MS) assay procedure. Any remaining plasma was retained for possible metabolite profiling. […]

colonic absorption: very poor colonic absorption
SMILES: Cc1cnc(NCC(F)(F)c2ccccc2)c(=O)n1CC(=O)NCCONC(=N)N [Compound X]
